Experimental data reported in patent publication US20250372228A1, “METHOD AND SYSTEM FOR D[…] PHARMACOKINETIC MODEL OF PROPOFOL AND DERIVATIVE THEREOF” (Xizang Haisco Pharmaceutical Co., Ltd., priority 2020, published 2025).
Where two headings read alike, the source gives them in different places.

Tests used:
[1] = Free drug concentration in the aqueous phase by ultrafiltration method; format: physicochemical; conditions: same conditions and concentrations, compared with propofol (Jingan®)
From the text: Propofol derivative injectable emulsion (hereinafter referred to as propofol derivative, with a chemical name of 2-[(1R)-1-cyclopropylethyl]-6-isopropyl-phenol), which is developed by Sichuan Haisco Pharmaceutical Co., Ltd. as a novel intravenous anesthetic with independent intellectual property rights, is intended to be used for sedation/anesthesia in various diagnostic examinations or treatments, induction and maintenance of general anesthesia, and sedation (ICU sedation) of intensive care subjects under mechanical ventilation. The propofol derivative, as the active ingredient, is a chemical entity similar to propofol, and is a single […] with two chiral centers of R-configuration. […] The main action mechanism of the propofol derivative is to allow for the inflow of chloride ions by enhancing an ion channel mediated by a γ-aminobutyric acid type A (GABAA) receptor, thereby achieving the inhibition of the nervous centralis. The channel is also a main target where propofol exerts its effects. The propofol derivative has the pharmacodynamic characteristics of fast onset of action and stable and rapid recovery.

[2] = tested on: γ-aminobutyric acid type A (GABAA) receptor; test: Potency compared with propofol (background statement)
[3] = Population pharmacokinetic (PopPK) three-compartment model of the propofol derivative from clinical trial plasma concentrations; format: in vivo, human; conditions: for Intercompartmental clearance between the central compartment and the peripheral compartment 1, Q2: exp(θ3); for Volume of distribution in the peripheral compartment 1, V2: exp(θ4); for Clearance between the central compartment and the peripheral compartment 2, Q3: exp(θ5); for Volume of distribution in the peripheral compartment 2, V3: exp(θ6); for relative median change of CL by total protein: total protein range not given; for Residual of venous blood collection (%): σ1; for Residual of arterial blood collection (%): σ2; for Interindividual variation of clearance, CL %: ωCL; for Interindividual variation of intercompartmental clearance between the central compartment and the peripheral compartment 1, Q2%: ωQ2; for Interindividual variation of intercompartmental clearance between the central compartment and the peripheral compartment 2, Q3%: ωQ3; for Interindividual variation of volume of distribution in the central compartment, V1%: ωV1; for Interindividual variation of volume of distribution in the peripheral compartment 2, V3%: ωV3
From the text: The original data set comprises 2609 measurable plasma drug concentration data from 219 subjects (wherein 81 people receive both arterial and venous blood collection, and subjects receiving another blood collecting method are regarded as new individuals, that is, 300 individuals are included in the population analysis).
By using a stepwise backward elimination method, no influence factors are eliminated (Δ−2LL>10.83).

clinical = conditions: human, plasma, intravenous; for clearance: CL, exp(θ1); for Vd: Volume of distribution in the central compartment, V1, exp(θ2)
Description: (§1) A pharmacokinetic data set included in the analysis are determined by evaluating the clinical trial data included: • plasma drug concentration data: acquired by means of implementation of the sampling scheme (see FIG. 8); • baseline demographic characteristic data: race, age, height, weight and gender; • blood biochemical index data: blood total protein content, creatinine clearance, glutamic-oxalacetic transaminase and glutamic-pyruvic transaminase; and • blood collection sites.
(§2) Establishing the preliminary foundation model on the basis of the data processed in step 3 comprising: • (1) describing interindividual variation of the PK parameters by using the following equation:
(§3) Establishing the final foundation model on the basis of the preliminary foundation model in step 4 comprising: • (1) determining covariates included in the evaluation on the basis of clinical knowledge and a drug action mechanism: • baseline demographic characteristic covariates: baseline values for age, gender, weight and race; • blood biochemical index covariates: creatinine clearance, total protein, glutamic-oxalacetic transaminase, glutamic-pyruvic transaminase, alkaline phosphatase and total bilirubin; and • blood collection sites. • (2) establishing a final population pharmacokinetic foundation model on the basis of the covariates included in the evaluation.
(§4) Establishing the population pharmacokinetic model by adding the screened covariates on the basis of the final foundation model in step 5 comprising: • (1) Pre-screening of covariates: • analyzing the correlation between the continuous covariates and the PK parameters by using the following equation:

[4] = for Volume of distribution in the peripheral compartment 2, V3: exp(6); for Volume of distribution in the peripheral compartment 2, V3 / Clearance between the central compartment and the peripheral compartment 2, Q3: parameter fixed (FIX); for Intercompartmental clearance between the central compartment and the peripheral compartment 1, Q2: exp(θ3); for Volume of distribution in the peripheral compartment 1, V2: exp(θ4); for Clearance between the central compartment and the peripheral compartment 2, Q3: exp(θ5); for Residual (%): σ1; for Clearance, CL %: ωCL (interindividual variation); for Volume of distribution in the central compartment, V1%: ωV1 (interindividual variation)
Description: as §1, §2, §3, §4

[5] = median of Bootstrap (2.5th to 97.5th percentiles)
[6] = typical value of final population model (95% CI)
[7] = typical value of final population model

For `CC(C)c1cccc([C@H](C)C2CC2)c1O` [propofol derivative, 2-[(1R)-1-cyclopropylethyl]-6-isopropyl-phenol], the “free drug concentration in the aqueous phase” value [1] was “lower free drug concentration in the aqueous phase”, the “potency relative to propofol” value [2] was 4-5 times and the “influence of age on AUC0-24” value ([3]; age 19.8 to 53 years old, propofol derivative-302 trial) was “no influence”. The “influence of age on Cmax” value ([3]; age 19.8 to 53 years old, propofol derivative-302 trial, expected to be clinically insignificant) was “has an influence”, the “Clearance, CL” value ([3]; exp(θ1), median of Bootstrap (2.5th to 97.5th percentiles)) was 66.4 (63.7 to 69.4) L/hr and the “Volume of distribution in the central compartment, V1” value ([3]; exp(θ2), median of Bootstrap (2.5th to 97.5th percentiles)) was 2.48 (2.27 to 2.74) L. For the same molecule, the “Intercompartmental clearance between the central compartment and the peripheral compartment 1, Q2” value [3, 5] was 57.9 (51.5 to 65.6) L/hr, the “Intercompartmental clearance between the central compartment and the peripheral compartment 1, Q2” value [3, 6] was 58 (50.8 to 65.1) L/hr and the “Volume of distribution in the peripheral compartment 1, V2” value (shortened to “Volume of distribution … V2”) [3, 5] was 5.74 (5.07 to 6.7) L. The “Volume of distribution … V2” value [3, 6] was 5.77 (4.96 to 6.58) L, the “Clearance between the central compartment and the peripheral compartment 2, Q3” value [3, 5] was 59.1 (54.6 to 63.6) L/hr and the “Clearance between the central compartment and the peripheral compartment 2, Q3” value [3, 6] was 59.0 (54.5 to 63.5) L/hr. For the same molecule, the “Volume of distribution in the peripheral compartment 2, V3” value [3, 5] was 78.4 (73 to 83.9) L, the “Volume of distribution in the peripheral compartment 2, V3” value [3, 6] was 78.3 (72.8 to 83.8) L and the “relative median change of CL by total protein” value ([3]; first value of the pair) was 6.8%. For the same molecule, the clearance ([3]; human, plasma, intravenous, exp(θ1), typical value of final population model (95% CI), read-out: Clearance, CL (converted)) was 1110 mL/min, the Vd ([3]; human, plasma, intravenous, exp(θ2), typical value of final population model (95% CI), read-out: Volume of distribution in the central compartment, V1) was 2.48 L and the “relative median change of CL by total protein” value ([3]; second value of the pair) was −6.3%. The “relative median change of CL by weight” value ([3]; weight 45 kg (lower end of range 45 kg to 90 kg)) was −11.6%, the “relative median change of CL by weight” value ([3]; weight 90 kg (upper end of range 45 kg to 90 kg)) was 12.7% and the “Residual of venous blood collection (%)” value [3, 5] was 30.5 (26.3 to 34.6) %. For the same molecule, the “Residual of venous blood collection (%)” value [3, 6] was 30.6 (26.6 to 34.5) %, the “Residual of arterial blood collection (%)” value [3, 5] was 16.9 (15.7 to 18.2) % and the “Residual of arterial blood collection (%)” value [3, 6] was 16.9 (15.8 to 18.1) %. The “Interindividual variation of clearance, CL %” value [3, 5] was 14.3 (11.9 to 17) %, the “Interindividual variation of clearance, CL %” value [3, 6] was 14.5 (12 to 16.9) % and the “Interindividual variation of intercompartmental clearance between the central compartment and the peripheral compartment 1, Q2%” value [3, 5] was 29.0 (23.1 to 35.5) %. For the same molecule, the “Interindividual variation of intercompartmental clearance between the central compartment and the peripheral compartment 1, Q2%” value [3, 6] was 28.9 (23.1 to 34.7) %, the “Interindividual variation of intercompartmental clearance between the central compartment and the peripheral compartment 2, Q3%” value [3, 5] was 28.8 (22.8 to 36.3) % and the “Interindividual variation of intercompartmental clearance between the central compartment and the peripheral compartment 2, Q3%” value [3, 6] was 29.1 (23.1 to 35.1) %. For the same molecule, the “Interindividual variation of volume of distribution in the central compartment, V1%” value [3, 5] was 40.4 (27.7 to 54.5) %, the “Interindividual variation of volume of distribution in the central compartment, V1%” value [3, 6] was 41.4 (28 to 54.9) % and the “Interindividual variation of volume of distribution in the peripheral compartment 2, V3%” value [3, 5] was 30.5 (25.3 to 35.7) %. For the same molecule, the “Interindividual variation of volume of distribution in the peripheral compartment 2, V3%” value [3, 6] was 30.7 (25.6 to 35.8) %.

In the case of `CC(C)c1cccc(C(C)C)c1O` [propofol], the clearance (clinical; [5]) is reported as 1530 mL/min, the clearance (clinical; [6]) is reported as 1590 mL/min and the Vd (clinical; [5]) is reported as 8.92 L. The Vd (clinical; [6]) was 9.46 L, the “influence of covariates on the pharmacokinetic parameters” value ([4]; covariate screening, forward and backward method) was “not found that covariates have a significant influence” and the “Volume of distribution in the peripheral compartment 2, V3” value ([4]; Bootstrap column) was 262, FIX(—) L. For the same molecule, the “Volume of distribution in the peripheral compartment 2, V3” value [4, 7] was 262, FIX(—) L, the “Intercompartmental clearance between the central compartment and the peripheral compartment 1, Q2” value [4, 5] was 132 (13.0 to 200) L/hr and the “Intercompartmental clearance between the central compartment and the peripheral compartment 1, Q2” value [4, 6] was 142 (88.4 to 196) L/hr. For the same molecule, the “Volume of distribution … V2” value [4, 5] was 35.6 (1.64 to 53.3) L, the “Volume of distribution … V2” value [4, 6] was 37.6 (25.2 to 50.0) L and the “Clearance between the central compartment and the peripheral compartment 2, Q3” value ([4]; Bootstrap column) was 48.6, FIX(—) L/hr. The “Clearance between the central compartment and the peripheral compartment 2, Q3” value [4, 7] was 48.6, FIX(—) L/hr, the “Residual (%)” value [4, 5] was 17.1 (11 to 23.1) % and the “Residual (%)” value [4, 6] was 19.2 (12.7 to 25.7) %. For the same molecule, the “Clearance, CL %” value [4, 5] was 22.5 (13.6 to 30.6) %, the “Clearance, CL %” value [4, 6] was 23.0 (14.8 to 31.1) % and the “Volume of distribution in the central compartment, V1%” value [4, 5] was 32.4 (6.02 to 49.5) %. The “Volume of distribution in the central compartment, V1%” value [4, 6] was 30.5 (8.11 to 52.9) %.
